Laboratory results reported in patent US12324927B2, “Methods and systems for photodynamic therapy calculations” (THE TRUSTEES OF THE UNIVERSITY OF PENNSYLVANIA, priority 2018, dated 2025).
Several values for one entry are separate records, joined by “and”; a condition that tells them apart may be missing. Equal entries are not always repeated. Entries after “also recorded” stand apart in the source; their conditions may differ.

Legend:
[1] = tested on: radiation-induced fibrosarcoma (RIF) tumors; assay: Preclinical Photofrin-PDT of RIF tumors: [ROS]rx by ROSED from Oxylite-measured or DCS blood-flow-derived oxygen; assay type: in vivo, mice; details: per mouse; for Initial Photofrin concentration, [PS]: in tumor, 5 mg/kg i.v. 24 h before light, 5 mg/kg; for Calculated [ROS]rx, Measured [^3O2] / Calculated [ROS]rx, DCS blood flow: 75 mW/cm^2, 1800 or 3333 s; for Calculated [ROS]rx, Measured [^3O2]: Oxylite-measured oxygen; for Calculated [ROS]rx, DCS blood flow: blood-flow-derived oxygen
Procedure: Tumor model and PDT treatment conditions: A preclinical study was conducted using a murine model to investigate the relationship between the dynamics of tumor oxygen and blood flow during PDT. Female C3H mice (Charles River Laboratories, Kingston, NY) between 6 to 8 weeks of age were used in this study. Radiation-induced fibrosarcoma (RIF) tumors were propagated on the shoulders of mice by intradermal injection of 3×10^5 cells. The mice were fed with chlorophyll-free (alfalfa-free) rodent diet (Harlan Laboratories Inc., Indianapolis, Indiana, US) for two weeks prior to treatment to eliminate the fluorescence signal from chlorophyll-breakdown products, which overlap with the emission spectrum of Photofrin fluorescence. PDT was performed when tumors reached ˜4-5 mm in diameter. The treatment area was depilated with Nair (Church & Dwight Co., Inc., Ewing, New Jersey, US) and 5 mg/kg Photofrin was injected via tail vein 24 hours prior to measurements and light delivery. Tissue optical properties and Photofrin fluorescence spectra were obtained using a custom-made multi-fiber contact probe, as described elsewhere (18, 19), before and after PDT. Tissue oxygenation and blood flow changes were monitored continuously during the delivery of PDT using oximeter and DCS as described below. At a 24-h drug-light interval, superficial irradiation of the tumor was performed with a 630-nm laser (Biolitec AG., A-1030, Vienna). A microlens fiber was coupled to the laser to irradiate the tumor uniformly. Animals used in this study were under the care of the University of Pennsylvania Laboratory Animal Resources and the studies were approved by the University of Pennsylvania Institutional Animal Care and Use Committee.
Measurement of tumor tissue oxygenation during preclinical PDT: Tumor oxygen was monitored throughout the PDT treatment in mice using an optical oxygen partial pressure (pO2) monitor (OxyLite Pro, Oxford Optronix, Oxford, UK), with a bare-fiber-type probe (NX-BF/O/E, Oxford Optronix, Oxford, UK). The tip of the probe was inserted into the tumor at approximately 1-2 mm depth from the treatment surface to measure the changes in tissue oxygen partial pressure within the tumor mass during PDT. ^3O2 concentration was then approximated by multiplying the measured pO2 with ^3O2 solubility in tissue, which is 1.295 μM/mmHg (20, 21).
Measurement of blood flow during preclinical PDT: Tumor blood flow was measured using DCS, an optical technique that measures the rapid speckle intensity fluctuations induced by blood flow. DCS, within a noncontact probe setup, was used to monitor blood flow changes in mice during PDT. A detailed description of the DCS instrument can be found in (22, 23). Briefly, a continuous wave 785-nm laser with long coherence length (CrystaLaser Inc., Reno, NV) delivered light through a source fiber, and the diffuse reflected light was collected using two single mode fibers located 0.3 cm laterally from the source fiber. These fibers were mounted on the imaging plane of a camera with sensor removed. A camera lens was used to focus the laser and to collect diffuse reflected light from the tumor at a fixed distance of 15 cm from the camera lens. This setup permits noncontact blood flow measurements during PDT without obstructing the treatment light. Two single photon counting avalanche photodiodes were used to detect the diffuse light in parallel. Notch filters at 630 nm and a 785 nm bandpass filter were used to prevent the ambient room light and the strong 630-nm treatment laser from saturating the detectors. Tissue blood flow measurements started 5 minutes before the beginning of PDT treatment and lasted until completion of PDT.
Calculation of [ROS]rx using ROSED: The PDT process is described by a set of kinetic equations which can be simplified to compute the production of [ROS]rx (4, 8, 9, 13). […]

[2] = 10 min mock treatment in liquid tissue-simulating phantom with moving light source; assay type: physicochemical; details: 3 mg kg^−1 Photofrin, 0-70 mW cm^−2
Procedure: Excitation light intensity varies vastly during PDT as the light source was constantly circulated around in the lung cavity by the physician. To test the performance of the PDT dosimetry system in measuring Photofrin fluorescence with varying excitation light intensities, a 10 min mock treatment was performed using liquid tissue-simulating phantom (μa=0.3 cm^−1 and μ′s=9.6 cm^−1) with known Photofrin concentration of 3 mg kg^−1 and a moving light source. The fluorescence spectra were measured at the surface of the phantom using isotropic detectors as described above. The treatment started with the treatment light wand positioned at a fixed distance above the phantom for 1 min. The average fluence rate measured on the surface was 50 mW cm^−2. Then the light wand was moved randomly over the top of the phantom to simulate the variations in the light fluence rate due to the movement of treatment light source in the pleural cavity during PDT treatment. […] The Photofrin concentrations obtained from measured Photofrin fluorescence spectra using data analysis method described above are plotted as a function of treatment time as shown in FIG. 4B. Each data point represents Photofrin concentration obtained from one fluorescence spectrum and the solid lines represent the average Photofrin concentration calculated for every 1 min of data. […]

[3] = Photofrin concentration and PDT dose at pleural cavity sites measured by fluorescence with 4-channel PDT dose dosimeter during Photofrin-mediated pleural PDT; design: species or system human; details: in vivo, all measurement sites, 630 nm, 60 J cm^−2
[4] = tested on: radiation-induced fibrosarcoma (RIF) tumors; details: larger tumors; cited from earlier work

Photofrin
Initial Photofrin concentration, [PS] ([1]; treatment time 1800 s): 6.9 µM and 6.8 µM and 5.2 µM and 5.7 µM
Initial Photofrin concentration, [PS] ([1]; treatment time 3333 s): 6.5 µM and 4.2 µM and 4.5 µM
Calculated [ROS]rx, Measured [^3O2] ([1]; treatment time 1800 s): 1.39 mM and 1.24 mM and 1.07 mM and 1.09 mM
Calculated [ROS]rx, Measured [^3O2] ([1]; treatment time 3333 s): 2.33 mM and 1.73 mM and 1.89 mM
Calculated [ROS]rx, DCS blood flow ([1]; treatment time 1800 s): 1.35 mM and 1.18 mM and 1.12 mM and 0.95 mM
Calculated [ROS]rx, DCS blood flow ([1]; treatment time 3333 s): 2.21 mM and 1.92 mM and 1.81 mM
photobleaching of Photofrin during mock treatment [2]: negligible photobleaching
photobleaching of Photofrin during PDT treatment [3]: no significant photobleaching; also recorded: did not change significantly; also recorded: negligible photobleaching
PDT dose threshold from previous study [4]: 1200 mM J/cm^2
